These results are taken from patent publication US8440674B2, “Substituted pyrimidine compounds as RAF inhibitors and methods of use” (Amgen Inc., priority 2005, dated 2013).

The structures appear in SMILES notation. Where two headings read alike, the source gives them in different places.

By IC50 is commonly meant the point on the concentration scale where inhibition reaches its midpoint.

In test [1] the target is recombinant HuBraf V600E (Homo sapiens, UniProt P15056, V600E). The experiment in a line: B-raf Homogenous Time Resolved Fluorescent (HTRF) kinase assay. In kind it is biochemical. The settings on record: substrate MEK1, 10 uM ATP; threshold lists; read-out: IC50 for the inhibition of B-raf as measured by the HTRF assay. As for the experimental part: A Homogeneous Time Resolved Fluorescence (HTRF) kinase assay was established to assay the ability of compounds to inhibit human mutant Braf kinase activity on the substrate MEK1. […] The final concentration of the kinase reaction buffer is 50 mM Tris-HCL pH 7.5, 10 mM MgCl2, 0.5% glucose, 0.5 mM DTT, 0.01% BSA.
The detection reaction proceeds for one hour and is read on a RubyStar (BMG Labtech) counter. IC50s for the test compounds are generated using Excel-XLfit software.
Background: Time-resolved FRET reads energy transfer from a long-lived donor to a nearby acceptor.

For test [2], the system named is A375 cells, a human melanoma cell line having the V600E mutant Braf. The experiment in a line: B-Raf cell-based assay (ratio of phospho-ERK1/2 to total ERK1/2). The note with it: A-375, 1 h, P-ERK/total ERK, 60 minute incubation, read-out: IC50 for the inhibition of B-raf as measured by the cell-based assay. Here is the method:
A cell-based assay was optimized to assay the ability of compounds to inhibit Braf activity in a whole cell context. […] The cell-based assay quantifies the ratio of phospho-ERK1/2 to total ERK1/2 and can thereby assay the cellular inhibition of Braf kinase activity.
A375 cells are plated into 96 well plates and grown to confluence. The cells are then changed into starve media (DMEM/0.1% BSA) for 60 minutes. Compounds in DMSO dose curves are then diluted in starve media and added to cells. […] After a 60 minute incubation the cells are fixed for 20 minutes at room temperature in 4% formaldehyde with 0.1%Triton X-100, protease and phosphatase inhibitors in PBS. The cells are washed four times in PBS then blocked for 60 minutes using a one to one mix of Odyssey blocking buffer (Li-Cor Biosciences, Inc) and PBS. Primary antibodies (rabbit anti-phospho p42/p44 MAPK (P-ERK1/2) from Cell Signaling Technology and mouse anti-ERK2 from Santa Cruz Biotechnology) are diluted in blocking buffer, added to the cells and incubated overnight at 4° C. The cells are then washed four times in PBS/0.1% Tween-20. Secondary antibodies (anti-mouse IRDye 800CW from Rockland, Inc and anti-rabbit AlexaFlour680 from Molecular Probes) are diluted in blocking buffer/0.5% Tween and incubated on cells for 60 minutes. After 4 washes in PBS/0.1% Tween-20 the microplate is scanned on an Odyssey Infrared Imager (Li-Cor Bioscience) which can read the signal given by the two secondary antibodies on their respective channels. The ratio of P-ERK/total ERK is determined and IC50s generated using Excel-XLfit software.

Sequence of recombinant HuBraf V600E (P15056 whole entry V600E): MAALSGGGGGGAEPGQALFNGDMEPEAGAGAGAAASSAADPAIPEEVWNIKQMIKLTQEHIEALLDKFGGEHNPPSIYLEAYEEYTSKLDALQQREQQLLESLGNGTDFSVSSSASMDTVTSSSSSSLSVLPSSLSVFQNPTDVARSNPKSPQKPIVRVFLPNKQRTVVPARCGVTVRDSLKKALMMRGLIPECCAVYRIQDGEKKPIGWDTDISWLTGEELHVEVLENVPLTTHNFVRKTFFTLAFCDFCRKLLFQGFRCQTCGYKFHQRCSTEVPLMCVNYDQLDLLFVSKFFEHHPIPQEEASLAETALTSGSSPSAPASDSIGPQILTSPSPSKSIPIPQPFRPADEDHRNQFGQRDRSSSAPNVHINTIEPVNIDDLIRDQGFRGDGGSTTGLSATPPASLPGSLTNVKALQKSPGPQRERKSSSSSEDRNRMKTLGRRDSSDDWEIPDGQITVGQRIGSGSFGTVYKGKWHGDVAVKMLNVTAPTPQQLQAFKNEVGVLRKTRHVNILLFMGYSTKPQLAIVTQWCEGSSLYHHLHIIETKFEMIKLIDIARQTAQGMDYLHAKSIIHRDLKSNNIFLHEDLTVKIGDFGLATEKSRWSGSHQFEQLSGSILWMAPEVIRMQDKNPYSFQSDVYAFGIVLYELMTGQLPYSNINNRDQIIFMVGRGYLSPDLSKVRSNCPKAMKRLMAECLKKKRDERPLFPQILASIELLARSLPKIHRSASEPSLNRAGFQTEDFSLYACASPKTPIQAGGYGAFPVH

In the case of `CNc1ncc2cc(-c3c(C)ccc4c(Nc5ccc(OC)c(C(F)(F)F)c5)nn(C)c34)ccc2n1` [Example 64, 6-(1,6-dimethyl-3-((4-(methyloxy)-3-(trifluoromethyl)phenyl)amino)-1H-indazol-7-yl)-N-methyl-2-quinazolinamine], the IC50 was no more than 250 nM in test [1] and no more than 500 nM in test [2] (threshold list).

In the case of `CNc1ncc2cc(-c3c(C)ccc4c(Nc5cccc(OC(F)(F)F)c5)nn(C)c34)ccc2n1` [Example 65, 6-(1,6-dimethyl-3-((3-((trifluoromethyl)oxy)phenyl)amino)-1H-indazol-7-yl)-N-methyl-2-quinazolinamine], the IC50 was no more than 250 nM in test [1] and no more than 500 nM in test [2] (threshold list).

For the compound `CNc1cc(-c2cccnc2Nc2c(C)ccc3c(Nc4cccc(OC(F)(F)F)c4)nccc23)ncn1` [Example 68, 6-methyl-N^5-(3-(6-(methylamino)-4-pyrimidinyl)-2-pyridinyl)-N^1-(3-((trifluoromethyl)oxy)phenyl)-1,5-isoquinolinediamine], the IC50 is no more than 250 nM in test [1] and no more than 500 nM in test [2] (threshold list).

As to `CNc1cc(-c2cccnc2Nc2c(C)ccc3c(Nc4ccc(OC)c(C(F)(F)F)c4)nccc23)ncn1` [Example 70, N^1-(4-methoxy-3-(trifluoromethyl)phenyl)-6-methyl-N^5-(3-(6-(methylamino)pyrimidin-4-yl)pyridin-2-yl)isoquinoline-1,5-diamine], the IC50 in test [1] and in test [2] (threshold list) was no more than 500 nM in each case.

As to `CNc1cc(-c2cccnc2Nc2c(C)ccc3c(Nc4ccc5c(c4)NCCC5(C)C)nccc23)ncn1` [Example 72, N^1-(4,4-dimethyl-1,2,3,4-tetrahydro-7-quinolinyl)-6-methyl-N^5-(3-(6-(methylamino)-4-pyrimidinyl)-2-pyridinyl)-1,5-isoquinolinediamine], the figures for the 50% inhibitory concentration (IC50) in test [1] and in test [2] (threshold list) were no more than 1000 nM and no more than 500 nM, respectively.

For the compound `CNc1ncc2cc(-c3c(C)ccc4c(Nc5cccc(OC(C)C)c5)n[nH]c34)ccc2n1` [Example 78, N-methyl-6-(6-methyl-3-((3-((1-methylethyl)oxy)phenyl)amino)-1H-indazol-7-yl)-2-quinazolinamine], the IC50 in test [1] is no more than 250 nM; in test [2] (threshold list), no more than 500 nM.

With `CNc1ncc2cc(-c3c(C)ccc4c(Nc5ccc6c(c5)NCC6(C)C)nccc34)ccc2n1` [Example 79, 6-(1-((3,3-dimethyl-2,3-dihydro-1H-indol-6-yl)amino)-6-methyl-5-isoquinolinyl)-N-methyl-2-quinazolinamine], the half-inhibitory concentration (IC50) in test [1] is no more than 250 nM; in test [2] (threshold list), no more than 500 nM.

As to `Cc1ccc2c(Nc3ccc4c(c3)NCC4(C)C)nccc2c1Nc1ncccc1-c1ccncn1` [Example 80, N^1-(3,3-dimethyl-2,3-dihydro-1H-indol-6-yl)-6-methyl-N^5-(3-(4-pyrimidinyl)-2-pyridinyl)-1,5-isoquinolinediamine], the IC50 in test [1] is no more than 250 nM; in test [2] (threshold list) it was no more than 500 nM.

`CNc1ncc2cc(-c3c(C)ccc4c(Nc5ccc6c(c5)NCC6(C)C)ncnc34)ccc2n1` [Example 81, N^4′-(3,3-dimethyl-2,3-dihydro-1H-indol-6-yl)-N^2,7′-dimethyl-6,8′-biquinazoline-2,4′-diamine]: the values for the IC50 in test [1] and in test [2] (threshold list) were no more than 250 nM and no more than 500 nM, respectively.

For the compound `CNc1ncc2cc(-c3c(C)ccc4c(Nc5ccc(C)c(F)c5)nn(C)c34)ccc2n1` [Example 198], the IC50 was no more than 250 nM in test [1], no more than 500 nM in test [2] (threshold list) and no more than 1000 nM in test [2] (threshold lists).

Turning to `CNc1ncc2cc(-c3c(C)ccc4c(Nc5ccc(-n6ccnc6)cc5)nn(C)c34)ccc2n1` [Example 204], the IC50 in test [1] was no more than 250 nM; in test [2] (threshold list), no more than 500 nM; in test [2] (threshold lists) it was no more than 1000 nM.

Regarding `CNc1cc(-c2cccnc2Nc2c(C)ccc3c(Nc4cccc(C(F)(F)F)c4)ncnc23)ncn1` [Example 337, 7-methyl-N8-(3-(6-(methylamino)pyrimidin-4-yl)pyridin-2-yl)-N4-(3-(trifluoromethyl)phenyl)quinazoline-4,8-diamine], the IC50 in test [1] was no more than 250 nM; in test [2] (threshold lists) it was no more than 5000 nM.

Consider `CNc1cc(-c2cccnc2Nc2c(C)ccc3c(Nc4cccc(OC(F)(F)F)c4)ncnc23)ncn1` [Example 343], for which the half-maximal inhibitory concentration (IC50) in test [1] was no more than 250 nM; in test [2] (threshold list) it was no more than 500 nM.

In the case of `Cc1ccc(C(F)(F)F)cc1Nc1nccc2c(Nc3ncccc3-c3ncnc4[nH]ccc34)c(C)ccc12` [Example 346], the half-maximal inhibitory concentration (IC50) in test [1] was no more than 500 nM; in test [2] (threshold lists) it was no more than 5000 nM.

For the compound `CNc1cc(-c2cccnc2Nc2c(C)ccc3c(Nc4ccc(Cl)c(C)c4)nccc23)ncn1` [Example 352], the half-inhibitory concentration (IC50) in test [1] was no more than 250 nM; in test [2] (threshold lists), no more than 5000 nM.

With `CNc1ncc2cc(-c3c(C)sc4c(Nc5ccc(OC)c(C(F)(F)F)c5)nccc34)ccc2n1` [Example 392, 6-(7-(4-methoxy-3-(trifluoromethyl)phenylamino)-2-methylthieno[2,3-c]pyridin-3-yl)-N-methylquinazolin-2-amine], the IC50 in test [1] is no more than 250 nM; in test [2] (threshold list) it was no more than 500 nM.

Consider `CNc1ncc2cc(-c3c(C)sc4c(Nc5cccc(C(F)(F)F)c5)nccc34)ccc2n1` [Example 393, N-methyl-6-(2-methyl-7-(3-(trifluoromethyl)phenylamino)thieno[2,3-c]pyridin-3-yl)quinazolin-2-amine], for which the results for the IC50 in test [1] and in test [2] (threshold lists) were no more than 250 nM and no more than 5000 nM, respectively.

For `CNc1ncc2cc(-c3c(C)ccc4c(Oc5cccc(C(F)(F)F)c5)nccc34)ccc2n1` [Example 395, N-methyl-6-(6-methyl-1-(3-(trifluoromethyl)phenoxy)isoquinolin-5-yl)quinazolin-2-amine], the results for the IC50 in test [1] and in test [2] (threshold list) were no more than 250 nM and no more than 500 nM, respectively.

`CNc1ncc2cc(-c3c(C)ccc4c(Nc5cccc(C(F)(F)F)c5)nsc34)ccc2n1` [Example 398, N-methyl-6-(6-methyl-3-(3-(trifluoromethyl)phenylamino)benzo[d]isothiazol-7-yl)quinazolin-2-amine]: the IC50 in test [1] is no more than 250 nM; in test [2] (threshold list) it was no more than 500 nM.

Take `CNc1ncc2cc(-c3c(C)ccc4c(Nc5ccc(OC)c(C(F)(F)F)c5)nsc34)ccc2n1` [Example 399, 6-(3-(4-methoxy-3-(trifluoromethyl)phenylamino)-6-methylbenzo[d]isothiazol-7-yl)-N-methylquinazolin-2-amine]: the IC50 in test [1] is no more than 250 nM; in test [2] (threshold list), no more than 500 nM.

As to `CNc1ncc2cc(-c3c(C)cnc4c(Nc5ccc(OC)c(C(F)(F)F)c5)nccc34)ccc2n1` [Example 410], the IC50 in test [1] was no more than 1000 nM; in test [2] (threshold list), no more than 500 nM.
